Results from patent US8119628B2, “Pyrrolidine fused indolobenzadiazepine HCV NS5B inhibitors” (Bristol-Myers Squibb Company, priority 2008, dated 2012).

What was measured:
HCV NS5B = biological target: T1, HCV NS5B (Hepatitis C virus genotype 1b, UniProt Q9WMX2); experiment: Modified HCV NS5B RdRp enzyme assay (preincubation protocol); type: biochemical; details: HCV NS5B RdRp genotype 1b
T1 construct: The protein was expressed with an 18 amino acid C-terminal truncation to enhance the solubility; made in house; host or cells: E. coli BL21(DE3)
Method: HCV NS5B RdRp cloning, expression, and purification. The cDNA encoding the NS5B protein of HCV, genotype 1b, was cloned into the pET21a expression vector. The protein was expressed with an 18 amino acid C-terminal truncation to enhance the solubility. The E. coli competent cell line BL21(DE3) was used for expression of the protein. Cultures were grown at 37° C. for ˜4 hours until the cultures reached an optical density of 2.0 at 600 nm. The cultures were cooled to 20° C. and induced with 1 mM IPTG. Fresh ampicillin was added to a final concentration of 50 μg/ml and the cells were grown overnight at 20° C.
Cell pellets (3 L) were lysed for purification to yield 15-24 […] of purified NS5B. The lysis buffer consisted of 20 mM Tris-HCl, pH 7.4, 500 mM NaCl, 0.5% triton X-100, 1 mM DTT, 1 mM EDTA, 20% glycerol, 0.5 mg/ml lysozyme, 10 mM MgCl2, 15 ug/ml deoxyribonuclease I, and Complete TM protease inhibitor tablets (Roche). After addition of the lysis buffer, frozen cell pellets were resuspended using a tissue homogenizer. To reduce the viscosity of the sample, aliquots of the lysate were sonicated on ice using a microtip attached to a Branson sonicator. The sonicated lysate was centrifuged at 100,000×g for 1 hr at 4° C. and filtered through a 0.2 μm filter unit (Corning).
The protein was purified using three sequential chromatography steps: Heparin sepharose CL-6B, polyU sepharose 4B, and Hitrap SP sepharose (Pharmacia). The chromatography buffers were identical to the lysis buffer but contained no lysozyme, deoxyribonuclease I, MgCl2 or protease inhibitor and the NaCl concentration of the buffer was adjusted according to the requirements for charging the protein onto the column. Each column was eluted with a NaCl gradient which varied in length from 5-50 column volumes depending on the column type. After the final chromatography step, the resulting purity of the enzyme is >90% based on SDS-PAGE analysis. The enzyme was aliquoted and stored at −80° C.
Standard HCV NS5B RdRp enzyme assay. HCV RdRp genotype 1b assays were run in a final volume of 60 μl in 96 well plates (Costar 3912). The assay buffer is composed of 20 mM Hepes, pH 7.5, 2.5 mM KCl, 2.5 mM MgCl2, 1 mM DTT, 1.6 U RNAse inhibitor (Promega N2515), 0.1 mg/ml BSA (Promega R3961), and 2% glycerol. All compounds were serially diluted (3-fold) in DMSO and diluted further in water such that the final concentration of DMSO in the assay was 2%. HCV RdRp genotype 1b enzyme was used at a final concentration of 28 nM. A polyA template was used at 6 nM, and a biotinylated oligo-dT12 primer was used at 180 nM final concentration. Template was obtained commercially (Amersham 27-4110). Biotinylated primer was prepared by Sigma Genosys. 3H-UTP was used at 0.6 μCi (0.29 μM total UTP). Reactions were initiated by the addition of enzyme, incubated at 30° C. for 60 min, and stopped by adding 25 μl of 50 mM EDTA containing SPA beads (4 μg/μl, Amersham RPNQ 0007). Plates were read on a Packard Top Count NXT after >1 hr incubation at room temperature.
Modified HCV NS5B RdRp enzyme assay. A modified enzyme assay was performed essentially as described for the standard enzyme assay except for the following: The biotinylated oligo dTl2 primer was precaptured on streptavidin-coated SPA beads by mixing primer and beads in assay buffer and incubating at room temperature for one hour. Unbound primer was removed after centrifugation. The primer-bound beads were resuspended in 20 mM Hepes buffer, pH 7.5 and used in the assay at final concentrations of 20 nM primer and […] beads. Order of addition in the assay: enzyme (14 nM) was added to diluted compound followed by the addition of a mixture of template (0.2 nM), 3H-UTP (0.6 μCi, 0.29 μM), and primer-bound beads, to initiate the reaction; concentrations given are final. Reactions were allowed to proceed for 4 hours at 30° C.
IC50 values for compounds were determined using seven different. […]

HCV replicon cells = experiment: HCV FRET assay in HCV replicon cells; type: cell-based; details: Hepatitis C virus
Description: FRET Assay Preparation. To perform the HCV FRET screening assay, 96-well cell culture plates were used. The FRET peptide (Anaspec, Inc.) (Taliani et al., Anal. Biochem. 1996, 240, 60-67) contains a fluorescence donor, EDANS, near one end of the peptide and an acceptor, DABCYL, near the other end. The fluorescence of the peptide is quenched by […] resonance energy transfer (RET) between the donor and the acceptor, but as the NS3 protease cleaves the peptide the products are released from RET quenching and the fluorescence of the donor becomes apparent. The assay reagent was made as follows: 5× cell Luciferase cell culture lysis reagent from Promega (#E153A) diluted to 1× with dH2O, NaCl added to 150 mM final, the FRET peptide diluted to 20 uM final from a 2 mM stock.
To prepare plates, HCV replicon cells, with or without a Renilla luciferase reporter gene, were trypsinized and placed into each well of a 96-well plate with titrated test compounds added in columns 3 through 12; columns 1 and 2 contained a control compound (HCV protease inhibitor), and the bottom row contained cells without compound. The plates were then placed in a CO2 incubator at 37° C.
Assays. Subsequent to addition of the test compounds described above (FRET Assay Preparation), at various times the plate was removed and Alamar blue solution (Trek Diagnostics, #00-100) was added per well as a measure of cellular toxicity. After reading in a Cytoflour 4000 instrument (PE Biosystems), plates were rinsed with PBS and then used for FRET assay by the addition of 30 ul of the FRET peptide assay reagent described above (FRET Assay Preparation) per well. The plate was then placed into the Cytoflour 4000 instrument which had been set to 340 excite/490 emission, automatic mode for 20 cycles and the plate read in a kinetic mode. Typically, the signal to noise using an endpoint analysis after the reads was at least three-fold. Alternatively, after Alamar blue reading, plates were rinsed with PBS, 50 ul of DMEM (high glucose) without phenol red was added and plates were then used for luciferase assay using the Promega Dual-Glo Luciferase Assay System.
Compound analysis was determined by quantification of the relative HCV replicon inhibition and the relative cytotoxicity values. To calculate cytoxicity values, the average Alamar Blue fluorescence signals from the control wells were set as 100% non-toxic. The individual signals in each of the compound test wells were then divided by the average control signal and multiplied by 100% to determine […]. To calculate the HCV replicon inhibition values, an average background value was obtained from the two wells containing the highest amount of HCV protease inhibitor at the end of the assay period. These numbers were similar to those obtained from naïve Huh-7 cells.
The background numbers were then subtracted from the average signal obtained from the control wells and this number was used as 100% activity. The individual signals in each of the compound test wells were then divided by the averaged control values after background subtraction and multiplied by 100% to determine percent activity. EC50 values for a protease inhibitor titration were calculated as the concentration which caused a 50% reduction in FRET or luciferase activity. The two numbers generated for the compound plate, percent cytoxicity and percent activity were used to determine compounds of interest for further analysis.

T1 sequence (Q9WMX2 2420-2992): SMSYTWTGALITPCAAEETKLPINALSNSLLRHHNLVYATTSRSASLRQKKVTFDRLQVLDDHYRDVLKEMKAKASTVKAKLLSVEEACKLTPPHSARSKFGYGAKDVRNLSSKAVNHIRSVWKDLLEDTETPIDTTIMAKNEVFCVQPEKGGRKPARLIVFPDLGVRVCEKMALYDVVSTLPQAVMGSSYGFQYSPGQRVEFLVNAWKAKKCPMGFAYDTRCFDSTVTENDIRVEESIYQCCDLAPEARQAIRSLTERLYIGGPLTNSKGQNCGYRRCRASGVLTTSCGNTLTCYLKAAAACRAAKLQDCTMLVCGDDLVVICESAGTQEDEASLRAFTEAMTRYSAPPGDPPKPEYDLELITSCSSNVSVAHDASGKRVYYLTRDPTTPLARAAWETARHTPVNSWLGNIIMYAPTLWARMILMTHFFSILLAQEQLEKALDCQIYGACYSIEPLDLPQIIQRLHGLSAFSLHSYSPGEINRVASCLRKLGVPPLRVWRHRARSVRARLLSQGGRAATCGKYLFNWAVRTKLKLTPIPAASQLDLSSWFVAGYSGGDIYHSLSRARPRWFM

Q: COc1ccc2c(c1)C1CN(C(=O)N(C)C)CC1(C(=O)N1C[C@@H](C)O[C@@H](C)C1)Cn1c-2c(C2CCCCC2)c2ccc(C(=O)NS(=O)(=O)N(C)C)cc21 (mixture of isomers) [Example 11, rac-(3aR,14bR)-10-cyclohexyl-3a-(((2S,6R)-2,6-dimethyl-4-morpholinyl)carbonyl)-N^7-(dimethylsulfamoyl)-13-methoxy-N^2,N^2-dimethyl-1,3a,4,14b-tetrahydroindolo[2,1-c]pyrrolo[3,4-d][2]benzazepine-2,7(3H)-dicarboxamide] was tested. Which IC50 (HCV NS5B; reported as class) did it give?
A: 20 to 500 nM

Q: And the EC50 (HCV replicon cells; reported as class)?
A: 20 to 500 nM

Q: With COc1ccc2c(c1)C1CN(C(C)CN(C)C)CC1(C(=O)N1C[C@@H](C)O[C@@H](C)C1)Cn1c-2c(C2CCCCC2)c2ccc(C(=O)NS(=O)(=O)N(C)C)cc21 (mixture of isomers) [Example 12, rac-(3aR,14bR)-10-cyclohexyl-2-(2-(dimethylamino)-1-methylethyl)-3a-(((2S,6R)-2,6-dimethyl-4-morpholinyl)carbonyl)-N-(dimethylsulfamoyl)-13-methoxy-1,2,3,3a,4,14b-hexahydroindolo[2,1-a]pyrrolo[3,4-d][2]benzazepine-7-carboxamide] as the molecule, how does the IC50 (HCV NS5B; reported as class) read?
A: 20 to 500 nM

Q: What about the EC50 (HCV replicon cells; reported as class) of the same molecule?
A: 20 to 500 nM

Q: COc1ccc2c(c1)C1CN(C(=O)CN(C)C)CC1(C(=O)N1C[C@@H](C)O[C@@H](C)C1)Cn1c-2c(C2CCCCC2)c2ccc(C(=O)NS(=O)(=O)N(C)C)cc21 (mixture of isomers) [Example 13, rac-(3aR,14bR)-10-Cyclohexyl-2-(N,N-dimethylglycyl)-3a-(((2S,6R)-2,6-dimethyl-4-morpholinyl)carbonyl)-N-(dimethylsulfamoyl)-13-methoxy-1,2,3,3a,4,14b-hexahydroindolo[2,1-a]pyrrolo[3,4-d][2]benzazepine-7-carboxamide] was tested. Which IC50 (HCV NS5B; reported as class) did it give?
A: 20 to 500 nM

Q: And the EC50 (HCV replicon cells; reported as class)?
A: 20 to 500 nM

Q: How did the IC50 (HCV NS5B) turn out when COc1ccc2c(c1)C1CN(C(=O)CN(C)C)CC1(C(=O)N(C)C)Cn1c-2c(C2CCCCC2)c2ccc(C(=O)NS(=O)(=O)N(C)C)cc21 (racemic) [Example 14, rac-(3aR,14bR)-10-Cyclohexyl-2-(N,N-dimethylglycyl)-N^7-(dimethylsulfamoyl)-13-methoxy-N^3a,N^3a-dimethyl-1,2,3,14b-tetrahydroindolo[2,1-a]pyrrolo[3,4-d][2]benzazepine-3a,7(4H)-dicarboxamide] was run?
A: 51 nM

Q: And the EC50 (HCV replicon cells)?
A: 47 nM

Q: How did the IC50 (HCV NS5B; reported as class) turn out when COc1ccc2c(c1)C1CN(C(=O)C(=O)N(C)C)CC1(C(=O)N(C)C)Cn1c-2c(C2CCCCC2)c2ccc(C(=O)NS(=O)(=O)N(C)C)cc21 (racemic) [Example 15, rac-(3aR,14bR)-10-Cyclohexyl-2-((dimethylamino)(oxo)acetyl)-N^7-(dimethylsulfamoyl)-13-methoxy-N^3a,N^3a-dimethyl-1,2,3,14b-tetrahydroindolo[2,1-a]pyrrolo[3,4-d][2]benzazepine-3a,7(4H)-dicarboxamide] was run?
A: 20 to 500 nM

Q: And the EC50 (HCV replicon cells; reported as class)?
A: 20 to 500 nM

Q: Which results are given for COc1ccc2c(c1)C1CN(C(=O)c3nccn3C)CC1(C(=O)N(C)C)Cn1c-2c(C2CCCCC2)c2ccc(C(=O)NS(=O)(=O)N(C)C)cc21 (racemic) [Example 16, rac-(3aR,14bR)-10-Cyclohexyl-N^7-(dimethylsulfamoyl)-13-methoxy-N^3a,N^3a-dimethyl-2-((1-methyl-1H-imidazol-2-yl)carbonyl)-1,2,3,14b-tetrahydroindolo[2,1-a]pyrrolo[3,4-d][2]benzazepine-3a,7(4H)-dicarboxamide]?
A: IC50 (HCV NS5B; reported as class): 20 to 500 nM; EC50 (HCV replicon cells; reported as class): 20 to 500 nM

Q: COc1ccc2c(c1)C1CN(C(C)CN(C)C)CC1(C(=O)N(C)C)Cn1c-2c(C2CCCCC2)c2ccc(C(=O)NS(=O)(=O)N(C)C)cc21 (racemic) [Example 17a, rac-(3aR,14bR)-10-cyclohexyl-2-(2-(dimethylamino)-1R-methylethyl)-N^7-(dimethylsulfamoyl)-13-methoxy-N^3a,N^3a-dimethyl-1,2,3,14b-tetrahydroindolo[2,1-a]pyrrolo[3,4-d][2]benzazepine-3a,7(4H)-dicarboxamide] was tested. Which IC50 (HCV NS5B; reported as class) did it give?
A: 20 to 500 nM

Q: And the EC50 (HCV replicon cells; reported as class)?
A: 20 to 500 nM

Q: How did the IC50 (HCV NS5B; reported as class) turn out when COc1ccc2c(c1)C1CN(Cc3cncn3C)CC1(C(=O)N(C)C)Cn1c-2c(C2CCCCC2)c2ccc(C(=O)NS(=O)(=O)N(C)C)cc21 (racemic) [Example 18, rac-(3aR,14bR)-10-Cyclohexyl-N^7-(dimethylsulfamoyl)-13-methoxy-N^3a,N^3a-dimethyl-2-((1-methyl-1H-imidazol-5-yl)methyl)-1,2,3,14b-tetrahydroindolo[2,1-a]pyrrolo[3,4-d][2]benzazepine-3a,7(4H)-dicarboxamide] was run?
A: 20 to 500 nM

Q: And the EC50 (HCV replicon cells; reported as class)?
A: 20 to 500 nM

Q: For COc1ccc2c(c1)C1CN(C(=O)[C@@H]3CCCN3C)CC1(C(=O)N(C)C)Cn1c-2c(C2CCCCC2)c2ccc(C(=O)NS(=O)(=O)N(C)C)cc21 (mixture of isomers) [Example 19, rac-(3aR,14bR)-10-cyclohexyl-N^7-(dimethylsulfamoyl)-13-methoxy-N^3a,N^3a-dimethyl-2-(1-methyl-L-prolyl)-1,2,3,14b-tetrahydroindolo[2,1-a]pyrrolo[3,4-d][2]benzazepine-3a,7(4H)-dicarboxamide], which IC50 (HCV NS5B) is on record?
A: 61 nM

Q: What about the EC50 (HCV replicon cells) of the same molecule?
A: 63 nM
